Laboratory results as given in patent US20070276126A1, “Cell adhesion and extracellular matrix proteins” (Incyte Corporation, priority 2002, published 2007).

Experiments:
[1] = tested on: expression of SEQ ID NO:78 in PHA blasts (T cell blasts derived from PBMCs); test: Microarray analysis of SEQ ID NO:78 expression in reactivated PHA blasts versus untreated PHA blasts; type: cell-based, human; conditions: PHA blasts stimulated for 2 hours, versus matching untreated PHA blasts, one donor tested
Protocol: (§1) Total RNA is isolated from tissue samples using the guanidinium thiocyanate method and poly(A)^+ RNA is purified using the oligo-(dT) cellulose method. Each poly(A)^+ RNA sample is reverse transcribed using MMLV reverse-transcriptase, 0.05 pg/μl oligo-(dT) primer (21 mer), 1× first strand buffer, 0.03 units/μl RNase inhibitor, 500 μM dATP, 500 μM dGTP, 500 μM dTTP, 40 μM dCTP, 40 μM dCTP-Cy3 (BDS) or dCTP-Cy5 (Amersham Biosciences). The reverse transcription reaction is performed in a […] containing 200 ng poly(A)^+ RNA with GEMBRIGHT kits (Incyte). Specific control poly(A)^+ RNAs are synthesized by in vitro transcription from non-coding yeast genomic DNA. […]
(§2) Reporter-labeled hybridization complexes are detected with a microscope equipped with an Innova 70 mixed gas 10 W laser (Coherent, Inc., Santa Clara Calif.) capable of generating spectral lines at 488 nm for excitation of Cy3 and at 632 nm for excitation of Cy5. […]
(§3) A grid is superimposed over the fluorescence signal image such that the signal from each spot is centered in each element of the grid. The fluorescence signal within each element is then integrated to obtain a numerical value corresponding to the average intensity of the signal. […]

[2] = tested on: expression of SEQ ID NO:78 in normal and Tangier disease derived fibroblasts; test: Microarray analysis of SEQ ID NO:78 expression in fibroblasts cultured in the presence versus absence of cholesterol; type: cell-based, human; conditions: fibroblasts cultured in the presence of cholesterol versus same cell type in the absence of cholesterol (one of 'both types of comparisons')
Protocol: as §1, §2, §3

SMILES | downregulation of SEQ ID NO:78 [1] | downregulation of SEQ ID NO:78 [2]
CCCCCCCCCCCCCC(=O)O[C@@H]1[C@@H](C)[C@@]2(O)[C@@H](C=C(CO)C[C@]3(O)C(=O)C(C)=C[C@@H]23)[C@@H]2C(C)(C)[C@]12OC(C)=O [PMA, phorbol myristate acetate] | at least two | 
CC(C)CCC[C@@H](C)[C@H]1CC[C@H]2[C@@H]3CC=C4C[C@@H](O)CC[C@]4(C)[C@H]3CC[C@]12C [cholesterol] |  | at least two
